Data from patent US4342752A, “Carbalkoxymethyl derivatives of rutin poly(H-)sulfate and method of use” (American Cyanamid Company, priority 1981, dated 1982).
Where “and” joins values, the source holds several entries; their conditions need not be identical. Equal entries are not always repeated. Structures can show the parent of a compound that is named as a salt. Where two headings read alike, the source gives them in different places.

What was measured:
[1] = test system: complement activity of sera; test: Guinea Pig Intraperitoneal Test (GPIP); details: Cavia porcellus, ip, 200 mg./kg. i.p., read-out: In Vivo Activity (Guinea Pig) Intraperitoneal % Inhibition
Experimental: An active inhibitor protects C2 from C1 and C4; (ii) Cap 50 Test--Here, appropriate amounts of the test compound are added to a pool of guinea pig serum in vitro, after which the undiluted serum capillary tube assay referred to above is run. The concentration of compound inhibiting 50% is reported; and (iii) Guinea Pig Intraperitoneal Test (GPIP)--Guinea pigs weighing about 300 g. are dosed intraperitoneally (i.p.) with 200 mg./kg. of the test compound dissolved in saline and adjusted to pH 7-8. Approximately 0.4 ml. blood samples, […], are collected directly into centrifuge tubes; 5 ml. blood samples, […] beakers. The samples are allowed to clot, centrifuged, and the resultant sera are assayed for complement activity using the capillary complement assay. Percent inhibition are calculated by comparison with simultaneous controls.

activated human C1 = biological target: T1, activated human C1 (Homo sapiens, UniProt P09871); test: Test Code 026 (C1 inhibitor); assay type: biochemical; details: twofold serial dilutions; higher well number indicates higher activity
T1 sequence (P09871 438-688 limits assumed): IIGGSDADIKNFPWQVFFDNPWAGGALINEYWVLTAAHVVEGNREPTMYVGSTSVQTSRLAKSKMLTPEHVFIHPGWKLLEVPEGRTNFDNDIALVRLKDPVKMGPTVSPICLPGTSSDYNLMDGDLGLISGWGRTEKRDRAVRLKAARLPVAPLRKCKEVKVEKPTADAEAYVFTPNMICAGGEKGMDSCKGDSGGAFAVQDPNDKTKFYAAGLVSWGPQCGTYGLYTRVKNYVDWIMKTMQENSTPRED
T1 sequence (P09871 16-437 limits assumed): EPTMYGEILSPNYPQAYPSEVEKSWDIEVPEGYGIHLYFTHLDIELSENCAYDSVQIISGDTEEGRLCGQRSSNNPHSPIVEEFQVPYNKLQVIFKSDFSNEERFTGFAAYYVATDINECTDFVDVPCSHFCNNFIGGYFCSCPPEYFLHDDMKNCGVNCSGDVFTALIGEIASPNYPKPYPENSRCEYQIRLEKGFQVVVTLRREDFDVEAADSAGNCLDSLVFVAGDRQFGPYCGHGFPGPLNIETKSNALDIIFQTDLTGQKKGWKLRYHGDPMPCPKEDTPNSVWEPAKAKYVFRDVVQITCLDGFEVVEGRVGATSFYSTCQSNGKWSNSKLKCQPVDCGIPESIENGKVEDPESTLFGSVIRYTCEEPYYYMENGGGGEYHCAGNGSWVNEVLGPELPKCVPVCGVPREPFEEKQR
Experimental: An active inhibitor protects C2 from C1 and C4; (ii) Cap 50 Test--Here, appropriate amounts of the test compound are added to a pool of guinea pig serum in vitro, after which the undiluted serum capillary tube assay referred to above is run. The concentration of compound inhibiting 50% is reported; and (iii) Guinea Pig Intraperitoneal Test (GPIP)--Guinea pigs weighing about 300 g. are dosed intraperitoneally (i.p.) with 200 mg./kg. of the test compound dissolved in saline and adjusted to pH 7-8. Approximately 0.4 ml. blood samples, taken by orbital sinus puncture 30 minutes and one hour after injections, are collected directly into centrifuge tubes; 5 ml. blood samples, taken by decapitation 2 hours after injection are collected directly into beakers. The samples are allowed to clot, centrifuged, and the resultant sera are assayed for complement activity using the capillary complement assay. Percent inhibition are calculated by comparison with simultaneous controls.

- In vitro Activity 026 (activity in wells, serial dilution assay) (activated human C1): 12 wells and 10 wells
Compound: CCOC(=O)COc1cc(OS(=O)(=O)O)c2c(=O)c(O[C@@H]3O[C@H](CO[C@@H]4O[C@@H](C)[C@H](OS(=O)(=O)O)[C@@H](OS(=O)(=O)O)[C@H]4OS(=O)(=O)O)[C@@H](OS(=O)(=O)O)[C@H](OS(=O)(=O)O)[C@H]3OS(=O)(=O)O)c(-c3ccc(OS(=O)(=O)O)c(OS(=O)(=O)O)c3)oc2c1 [7-O-Carbethoxymethyl-rutin nona(H-sulfate)sodium salt]
- inhibition at 200 mg/kg ([1]; Time 2 hours): 39%
- inhibition at 200 mg/kg ([1]; Time 6 hours): 43%
- inhibition at 200 mg/kg ([1]; Time 24 hours): 55%
